Experiments:
[1] = system: LPS-mediated microglial activation; assay: LPS neuroinflammation model; format: in vivo, C57BL/6 mice; conditions: cortex, substantia nigra, hippocampus; ICM 2 and 10 mg/kg, FIG. 19
Method: All experiments were performed on 11-week-old male C57BL/6 mice. The animals were divided into four experimental groups (group 1: control treated with vehicle; group 2: treated with ICM; group 3: treated with LPS and vehicle; and group 4: treated with LPS and ICM). ICM (2 or 10 mg per kg body weight) or vehicle (distilled water containing 5% DMSO and 40% polyethylene glycol) was administered once a day for 4 days. LPS was administered at a dose of 5 mg/kg on day 2 for a single challenge.
Mice were anesthetized with diethyl ether, transcardially perfused with cold saline, and then fixed with 4% paraformaldehyde diluted in 0.1 M PBS. Brains or lumbar spinal cords were fixed using 4% PFA for 3 days and then cryoprotected with a 30% sucrose solution for 3 days. Three animals were used per experimental group. The fixed brains and spinal cords were embedded in OCT compound for frozen sectioning and then sectioned coronally at 20 μm. To detect LPS-induced microglial activation, each section was incubated with a rabbit anti-Iba-1 antibody and FluoroMyelin. The sections were visualized directly or incubated with Cy3-conjugated anti-rabbit IgG antibody. Also, the sections were stained with hematoxylin and eosin to assess inflammatory lesions.

HMGB2 = target: T1, HMGB2 (Mus musculus, UniProt P30681); assay: Pull-down assay with immunoblotting for HMGB2; format: binding; conditions: ICM 20 μM as soluble competitor, ICM-BP 5 μM, FIG. 12
T1 construct: endogenous in cells
T1 sequence (P30681 1-210): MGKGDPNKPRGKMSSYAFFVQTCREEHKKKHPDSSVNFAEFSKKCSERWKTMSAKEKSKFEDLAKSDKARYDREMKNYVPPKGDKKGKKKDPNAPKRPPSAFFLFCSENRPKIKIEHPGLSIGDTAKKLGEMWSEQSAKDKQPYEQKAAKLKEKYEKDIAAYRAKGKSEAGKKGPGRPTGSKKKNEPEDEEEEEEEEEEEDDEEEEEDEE
Method: Cells were treated with the compounds (ICM-BP alone or ICM-BP/ICM in combination) for 30 min and then with LPS for 2 hrs. Afterwards, the cells were irradiated with 365-nm UV light for 30 min, washed with PBS and stored at −78° C. They were lysed in RIPA buffer containing a protease inhibitor cocktail, and the protein concentration was adjusted to approximately 1 mg/ml. The proteome was labeled with Cy5-azide (40 μM), TBTA (100 μM), CuSO4 (1 mM), TCEP (1 mM) and t-BuOH (5%) for 1 hrs. The mixture was treated with acetone at −20° C. for […] to precipitate proteins. After centrifugation at 4° C. and 14,000 rpm for […], the pellet was washed twice with cold acetone. For 1-D gel analysis, the pellet was dissolved in Laemmli sample buffer and analyzed by electrophoresis. For 2-D gel analysis, the pellet was dissolved in rehydration buffer. The proteome labeled with ICM-BP (test group) and the control (labeled with ICM-BP/ICM) were mixed (1:1 ratio). The mixed proteomes were analyzed by 2-D gel electrophoresis. In-gel fluorescence was scanned with a Typhoon Trio (GE Healthcare).
Cell lysates were prepared according to the same protocol used for the in-gel analysis (lyzed in RIPA buffer containing a protease inhibitor cocktail). […] Samples were boiled with Laemmli sample buffer, and analyzed by electrophoresis and immunoblotting for HMGB2.

purified HMGB2 protein = target: T2, purified HMGB2 protein (Homo sapiens, UniProt P26583); assay: SPR (surface plasmon resonance) assay; format: binding; conditions: 1, 15, 30, 50, 75, and 100 μM ICM, FIG. 13
T2 sequence (P26583 1-209): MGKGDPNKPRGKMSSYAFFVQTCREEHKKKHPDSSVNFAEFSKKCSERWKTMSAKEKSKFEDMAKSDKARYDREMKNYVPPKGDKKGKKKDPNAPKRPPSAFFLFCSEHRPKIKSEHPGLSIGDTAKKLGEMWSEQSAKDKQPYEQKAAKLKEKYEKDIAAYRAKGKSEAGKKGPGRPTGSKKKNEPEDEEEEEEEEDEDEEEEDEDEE
Method: To determine the dissociation constant of the interaction of ICM with HMGB, SPR analysis was performed using Biacore T100. A carboxyl group bound onto a CM5 chip of the biosensor was activated with EDC(1-ethyl-3-(3-dimethylaminopropyl)-carbodiimide) and NHS(N-hydroxysuccinimide) to form reactive succinimide ester. HMGB1 (10 mM Na-acetate, pH 4.0) and HMGB2 (10 mM Na-acetate, pH 4.5) proteins were immobilized via an amide bond onto the sensor chip, followed by quenching excess succinimide ester with 1 M ethanolamine-HCl (pH 8.0). PBS was used as a running buffer for the immobilization. After immobilization, various concentrations of ICM were injected (for 60 sec at a flow rate of 30 μl/min). […] For this, a buffer containing 10-mM HEPES (pH 7.4), 5% DMSO, 150 mM NaCl, 3 mM EDTA, and 0.005% P20 was injected. Binding was measured at 25° C. The measurements were analyzed using Biacore T100 Evaluation software (GE Healthcare). Finally, the curve was obtained by normalizing to the control. The dissociation constant was calculated by fitting the curve to the 1:1 binding model.

binding to HMGB (SPR sensorgram) (purified HMGB2 protein): binds directly to HMGB
SMILES: CC1(C)Oc2cc(O)ccc2C2C1=CCn1c(=O)n(-c3ccccc3)c(=O)n12 (stereo not drawn) [ICM]
LPS-mediated microglial activation (Iba-1+ cell number) [1]: effectively blocked LPS-mediated microglial activation in all the brain parts
competition of ICM-BP binding to HMGB2 (HMGB2): markedly lowered the level of binding for HMGB2

— patent publication US9468641B2, “Anti-inflammatory pharmaceutical composition comprising benzopyranyl tetracycles” (SEOUL NATIONAL UNIVERSITY R&DB FOUNDATION, priority 2014, dated 2016)
